TGI and GI50 data for 14 compounds are collected here from PubChem BioAssay (NCI).

Some test systems named below: NCI-H460 lung; HL-60(TB) leukemia; OVCAR-8 ovarian; NCI-H226 lung; NCI-H522 lung; IGROV1 ovarian; SNB-75 CNS; CCRF-CEM leukemia; RPMI-8226 leukemia; HOP-92 NSCLC; A498 renal; UACC-62 melanoma; K-562 leukemia; SK-MEL-5 melanoma; U251 CNS; M14 melanoma; MDA-MB-231 breast; MCF7 breast.
Assay in all cases: inhibition of tumour cell growth, NCI panel, 48 h

Values joined by “and” are separate entries in the source; they are usually repeats but may differ in a detail not shown here. Identical values can stand only once.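 Following 48 hours of exposure in 96-well plates, responses at five concentrations were used to interpolate endpoints linearly. The concentration for 50% growth inhibition is given as GI50. TGI: total growth inhibition.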

As for `Cc1nc2c(s/c(=N\N)n2-c2ccccc2)c(=O)n1C`, the TGI in the assay with NCI-H460 lung, in the assay with HL-60(TB) leukemia, in the assay on OVCAR-8 ovarian, in the assay on NCI-H226 lung, in the assay on NCI-H522 lung and in the assay with IGROV1 ovarian was greater than 100 µM in each case. Besides, the TGI in the assay on SNB-75 CNS, in the assay with CCRF-CEM leukemia, in the assay with RPMI-8226 leukemia, in the assay with HOP-92 NSCLC, in the assay on A498 renal and in the assay on UACC-62 melanoma was greater than 100 µM each time. Moreover, the TGI in the assay with K-562 leukemia, in the assay on SK-MEL-5 melanoma, with U251 CNS and with M14 melanoma was greater than 100 µM in each case.

For `Cc1ccc(C(=O)C(C)N)cc1C` (stereo unspecified), the TGI in the assay with NCI-H460 lung, in the assay on OVCAR-8 ovarian, in the assay on NCI-H226 lung, with NCI-H522 lung, in the assay on IGROV1 ovarian and in the assay with SNB-75 CNS was greater than 100 µM throughout. Besides, the TGI in the assay with CCRF-CEM leukemia, with RPMI-8226 leukemia, with A498 renal, in the assay with UACC-62 melanoma, in the assay on K-562 leukemia and in the assay on SK-MEL-5 melanoma was greater than 100 µM throughout. Moreover, the TGI in the assay on U251 CNS and in the assay on M14 melanoma was greater than 100 µM each time.

As for `CN1C(=O)C(O)C[C@@H]1c1ccc(F)cc1` (stereo partly specified), the TGI with HL-60(TB) leukemia, in the assay on MDA-MB-231 breast, in the assay on NCI-H226 lung, with IGROV1 ovarian, in the assay with CCRF-CEM leukemia and with RPMI-8226 leukemia was greater than 100 µM in each case. Besides, the TGI with HOP-92 NSCLC, in the assay on UACC-62 melanoma, with MCF7 breast, with SK-MEL-5 melanoma, in the assay with U251 CNS and in the assay on M14 melanoma was greater than 100 µM each time.

For `NCCSc1nc(N)c2ncn(C3OC(CO)C(O)C3O)c2n1` (stereo unspecified), the TGI with NCI-H460 lung, with HL-60(TB) leukemia, in the assay on OVCAR-8 ovarian, in the assay on NCI-H226 lung, with NCI-H522 lung and in the assay with IGROV1 ovarian was greater than 100 µM in each case. Moreover, the TGI in the assay on SNB-75 CNS, in the assay on CCRF-CEM leukemia, in the assay on RPMI-8226 leukemia, in the assay on HOP-92 NSCLC, with A498 renal and in the assay on UACC-62 melanoma was greater than 100 µM each time. Further, the TGI in the assay with K-562 leukemia, in the assay with SK-MEL-5 melanoma, in the assay on U251 CNS and with M14 melanoma was greater than 100 µM throughout.

Take `COc1ccc(NC(C)=O)cc1N1C(=O)/C(=C\c2cccc(Oc3ccccc3)c2)SC1c1ccccc1` (stereo unspecified): the TGI with NCI-H460 lung was greater than 100 µM; in the assay on HL-60(TB) leukemia it was 37.9 µM; in the assay with MDA-MB-231 breast, greater than 100 µM; in the assay with OVCAR-8 ovarian it was 64.8 µM; in the assay on NCI-H226 lung, greater than 100 µM; in the assay with NCI-H522 lung, greater than 100 µM. The TGI in the assay on IGROV1 ovarian was greater than 100 µM; with SNB-75 CNS it was greater than 100 µM; in the assay on CCRF-CEM leukemia, 67.2 µM; in the assay with RPMI-8226 leukemia, 61.9 µM; with HOP-92 NSCLC, 79.6 µM; with A498 renal, greater than 100 µM. The TGI in the assay with UACC-62 melanoma, in the assay with K-562 leukemia, in the assay on MCF7 breast, in the assay with SK-MEL-5 melanoma, in the assay on U251 CNS and in the assay on M14 melanoma was greater than 100 µM throughout.

For `CCN1CCC(O)(/C=C/c2ccc(Cl)cc2)C(C(=O)/C=C/c2ccc(Cl)cc2)C1` (stereo unspecified), the TGI is greater than 100 µM with NCI-H460 lung; greater than 100 µM in the assay on HL-60(TB) leukemia; 61.3 µM in the assay with OVCAR-8 ovarian; 43.6 µM with NCI-H226 lung; 81.5 µM in the assay on NCI-H522 lung; 62.6 µM with IGROV1 ovarian. Further, the TGI in the assay with SNB-75 CNS was 74.5 µM; in the assay with CCRF-CEM leukemia, greater than 100 µM; in the assay with A498 renal, 34.2 µM; with UACC-62 melanoma it was 42.2 µM; in the assay with K-562 leukemia, greater than 100 µM; with SK-MEL-5 melanoma, 28.3 µM. Further, the TGI is 44.9 µM in the assay on U251 CNS and greater than 100 µM in the assay on M14 melanoma.

In the case of `CC(C)(C)c1cc2c(O)c(c1)COCc1cc(C(C)(C)C)cc(c1O)COCc1cc(C(C)(C)C)cc(c1O)COC2`, the TGI in the assay with NCI-H460 lung, with HL-60(TB) leukemia, with OVCAR-8 ovarian, in the assay on NCI-H226 lung, in the assay on IGROV1 ovarian and in the assay with SNB-75 CNS was greater than 100 µM in each case. Further, the TGI in the assay on CCRF-CEM leukemia, with RPMI-8226 leukemia, with HOP-92 NSCLC, with A498 renal, in the assay on UACC-62 melanoma and in the assay with K-562 leukemia was greater than 100 µM throughout. Further, the TGI in the assay with MCF7 breast, in the assay with SK-MEL-5 melanoma, in the assay on U251 CNS and in the assay on M14 melanoma was greater than 100 µM each time.

`CCCC(=O)OC1=C(c2ccccc2)Sc2ccccc2-n2cccc21`: the TGI in the assay on HL-60(TB) leukemia, in the assay with MDA-MB-231 breast, in the assay with OVCAR-8 ovarian, with IGROV1 ovarian, in the assay on SNB-75 CNS and in the assay on CCRF-CEM leukemia was greater than 10 µM throughout. The TGI with RPMI-8226 leukemia, in the assay on HOP-92 NSCLC, in the assay on UACC-62 melanoma, in the assay with K-562 leukemia, in the assay on MCF7 breast and with SK-MEL-5 melanoma was greater than 10 µM each time. For the same compound, the TGI with M14 melanoma was greater than 10 µM.

In the case of `Cc1cc2nc3c(C#N)c4c(c(Nc5ccc(Cl)cc5)n3c2cc1C)CCC4`, the TGI with MDA-MB-231 breast was 42.8 µM; with OVCAR-8 ovarian, 35.5 µM; in the assay with NCI-H226 lung it was 64.7 µM; in the assay on NCI-H522 lung, 26.5 µM; in the assay on SNB-75 CNS, greater than 100 µM; with RPMI-8226 leukemia, 32.7 µM. For the same compound, the TGI is 47.8 µM with HOP-92 NSCLC, greater than 100 µM in the assay with A498 renal, 32.9 µM in the assay on SK-MEL-5 melanoma and 32.9 µM with U251 CNS.

As to `CC(=O)Oc1cc2c(n(C)c1=O)CCC2`, the TGI in the assay with NCI-H460 lung, in the assay on HL-60(TB) leukemia, in the assay on MDA-MB-231 breast, in the assay on OVCAR-8 ovarian, in the assay on NCI-H226 lung and in the assay with IGROV1 ovarian was greater than 100 µM in each case. Moreover, the TGI in the assay with SNB-75 CNS, with CCRF-CEM leukemia, with HOP-92 NSCLC, in the assay on A498 renal, in the assay with K-562 leukemia and in the assay with MCF7 breast was greater than 100 µM throughout. For the same compound, the TGI in the assay with SK-MEL-5 melanoma, in the assay with U251 CNS and in the assay with M14 melanoma was greater than 100 µM in each case.

For `O=c1[nH]c(Br)nc2c(N3CCCCC3)c[nH]c12`, the TGI was greater than 100 µM in the assay with NCI-H460 lung; greater than 100 µM with HL-60(TB) leukemia; greater than 100 µM in the assay with OVCAR-8 ovarian; greater than 100 µM in the assay on NCI-H226 lung; 81.8 µM in the assay on NCI-H522 lung; greater than 100 µM in the assay on IGROV1 ovarian. Besides, the TGI in the assay with SNB-75 CNS, in the assay on CCRF-CEM leukemia, in the assay with RPMI-8226 leukemia, with HOP-92 NSCLC, in the assay with A498 renal and with UACC-62 melanoma was greater than 100 µM each time. Moreover, the TGI with K-562 leukemia, with SK-MEL-5 melanoma, with U251 CNS and with M14 melanoma was greater than 100 µM in each case.

`C#CC1(O)CC(c2ccccc2)N(C)C(c2ccccc2)C1` (stereo unspecified): the TGI with NCI-H460 lung, in the assay on HL-60(TB) leukemia, in the assay on OVCAR-8 ovarian, in the assay with NCI-H226 lung, in the assay with NCI-H522 lung and in the assay on IGROV1 ovarian was greater than 100 µM throughout. For the same compound, the TGI in the assay on SNB-75 CNS, with CCRF-CEM leukemia, with HOP-92 NSCLC, in the assay on A498 renal, in the assay on UACC-62 melanoma and with K-562 leukemia was greater than 100 µM in each case. Besides, the TGI in the assay with SK-MEL-5 melanoma, in the assay on U251 CNS and in the assay with M14 melanoma was greater than 100 µM in each case.

As for `Nc1nc2c(ncn2CC(CO)CC(c2ccccc2)P(=O)(O)O)c(=O)[nH]1` (stereo unspecified), the TGI with NCI-H460 lung, in the assay on HL-60(TB) leukemia, in the assay with OVCAR-8 ovarian, with NCI-H226 lung, in the assay on NCI-H522 lung and in the assay with IGROV1 ovarian was greater than 100 µM in each case. The TGI in the assay on SNB-75 CNS, in the assay on CCRF-CEM leukemia, with RPMI-8226 leukemia, with HOP-92 NSCLC, in the assay on A498 renal and in the assay with UACC-62 melanoma was greater than 100 µM each time. For the same compound, the TGI with K-562 leukemia, in the assay on SK-MEL-5 melanoma, with U251 CNS and with M14 melanoma was greater than 100 µM each time. The GI50 in the assay on SNB-75 CNS is 13.2 µM and > 100 µM.

On to `COC1=CC(=O)C2C(C1=O)[C@@H]1c3ccccc3OC[C@H]21` (stereo partly specified), for which the TGI in the assay with NCI-H460 lung, in the assay on HL-60(TB) leukemia, with OVCAR-8 ovarian, with NCI-H226 lung, in the assay on NCI-H522 lung and in the assay with SNB-75 CNS was greater than 100 µM each time. The TGI in the assay with CCRF-CEM leukemia, with RPMI-8226 leukemia, in the assay on HOP-92 NSCLC, in the assay on A498 renal, with K-562 leukemia and with SK-MEL-5 melanoma was greater than 100 µM in each case. For the same compound, the TGI in the assay on U251 CNS and in the assay on M14 melanoma was greater than 100 µM throughout.
